Activity calls are given as the source filed them. How the calls were made is not given here.
What was measured:
[1] = Binding affinity to amyloid beta (1 to 42) fibrils by change in fluorescence at 100 uM after 10 mins
[2] = Binding affinity to amyloid beta (1 to 42) oligomers by change in fluorescence at 100 uM after 10 mins

Compound | Activity [1] | Activity [2]
Nc1ccc2nc3ccc(N)cc3[s+]c2c1 | inactive | inactive
O=c1oc2c(O)c(O)cc3c(=O)oc4c(O)c(O)cc1c4c23 | inactive | inactive
CN(C)c1ccc(N=Nc2ccccc2)cc1 | inactive | inactive
O=c1c(O)c(-c2ccc(O)c(O)c2)oc2cc(O)cc(O)c12 | inactive | inactive
Nc1c(/N=N/c2ccc(-c3ccc(/N=N/c4cc(S(=O)(=O)O)c5ccccc5c4N)cc3)cc2)cc(S(=O)(=O)O)c2ccccc12 | Active | Active
O=c1c(-c2ccc(O)cc2)coc2cc(O)cc(O)c12 | inactive | inactive
O=Cc1cccc(O)c1 | inactive | inactive
O=c1cc2oc3cc(O)c(-c4ccc(O)cc4O)cc3nc-2cc1-c1ccc(O)cc1O | inactive | inactive
COc1ccc(/C=C/c2cc(OC)cc(OC)c2)cc1 | inactive | inactive
Oc1ccc(/C=C/c2cc(O)cc(O)c2)cc1 | Active | Active
COc1ccc(/C=C/C(=O)c2ccccc2)cc1OC | inactive | inactive
O=C(c1ccccc1)c1ccc(O)c(O)c1O | inactive | inactive
Nc1ccc(/N=N/c2ccc(-c3ccc(/N=N/c4c(S(=O)(=O)O)cc5cc(S(=O)(=O)O)c(/N=N/c6ccccc6)c(O)c5c4N)cc3)cc2)c(N)c1 | inactive | inactive
O=S1(=O)OC(c2ccc(O)cc2)(c2ccc(O)cc2)c2ccccc21 | inactive | inactive
CN(C)[C@@H]1C(O)=C(C(N)=O)C(=O)[C@@]2(O)C(O)=C3C(=O)c4c(O)cccc4[C@@](C)(O)[C@H]3C[C@@H]12 | inactive | inactive
O=C(/C=C/c1ccc(O)c(O)c1)O[C@H](Cc1ccc(O)c(O)c1)C(=O)O | inactive | inactive
COc1cc(/C=C/C(=O)CC(=O)/C=C/c2ccc(O)c(OC)c2)ccc1O | inactive | inactive
O=C1C=CC(=O)c2c(O)cccc21 | inactive | inactive
O=c1c(O)c(-c2cc(O)c(O)c(O)c2)oc2cc(O)cc(O)c12 | inactive | inactive

Compound | Activity [1] | Activity [2]
COc1ccc(/C=C/C(=O)c2cccc(N)c2)cc1OC | inactive | inactive
COc1cc(-c2ccc(/N=N/c3ccc4c(S(=O)(=O)O)cc(S(=O)(=O)O)c(N)c4c3O)c(OC)c2)ccc1/N=N/c1ccc2c(S(=O)(=O)O)cc(S(=O)(=O)O)c(N)c2c1O | inactive | inactive
COc1ccc(/C=C/C(=O)CC(=O)/C=C/c2ccc(OC)c(OC)c2)cc1OC | inactive | inactive
COc1ccc(C=O)cc1OC | inactive | inactive
O=C1C[C@@H](c2ccc(O)cc2)Oc2cc(O)cc(O)c21 | inactive | inactive
COc1ccc(/C=C/c2cccc(/C=C/c3ccc(OC)c(OC)c3)c2)cc1OC | Active | Active
COc1ccc(C=O)cc1 | inactive | inactive
CC(=O)c1ccccc1 | inactive | inactive
CCN(CC)c1ccc2c(-c3ccccc3C(C)=O)c3ccc(=[N+](CC)CC)cc-3oc2c1 | Active | Active
COc1ccc(/C=C/C(=O)c2ccccc2)cc1 | inactive | inactive
Nc1c2ccccc2nc2ccccc12 | Active | Active
C=C1c2c(Cl)ccc(O)c2C(=O)C2=C(O)[C@]3(O)C(=O)C(C(N)=O)=C(O)[C@@H](N(C)C)[C@@H]3[C@@H](O)[C@H]12.O=C(O)c1cc(S(=O)(=O)O)ccc1O | Active | Active
O=S(=O)(O)c1cc(S(=O)(=O)O)c2c(/N=N/c3ccccc3)c(O)ccc2c1 | inactive | inactive
O=C(O)c1cc(/N=N/c2ccc(-c3ccc(/N=N/c4ccc(O)c(C(=O)O)c4)cc3)cc2)ccc1O | inactive | inactive
O=C1C=Cc2ccccc2C1=O | Active | Active
O=C(O)C(=O)Cc1c[nH]c2ccccc12 | Active | Active
COc1cc(/C=C/C(=O)NCc2cccc(CNC(=O)/C=C/c3ccc(O)c(OC)c3)c2)ccc1O | inactive | inactive
CN(C)[C@@H]1C(O)=C(C(=O)NCN2CCCC2)C(=O)[C@@]2(O)C(O)=C3C(=O)c4c(O)cccc4[C@@](C)(O)[C@H]3C[C@@H]12 | inactive | inactive
CC(Cc1ccc(O)c(O)c1)C(C)Cc1ccc(O)c(O)c1 (configuration not stated) | inactive | inactive

Compound | Activity [1] | Activity [2]
CN(C)c1ccc(N=Nc2ccccc2C(=O)O)cc1 | inactive | inactive
O=C(O)/C=C/c1cccc(O)c1 | inactive | inactive
COc1cc(/C=C/C(=O)O)ccc1O | Active | Active
CC(C)OC(=O)C(C)(C)Oc1ccc(C(=O)c2ccc(Cl)cc2)cc1 | inactive | inactive
O=C1c2c(O)cc(O)cc2O[C@H](c2ccc(O)c(O)c2)[C@H]1O | inactive | inactive
CN(C)c1ccc(N=Nc2ccc(S(=O)(=O)O)cc2)cc1 | inactive | inactive
O=C(/C=C/c1ccccc1)c1ccccc1 | inactive | inactive
Oc1ccc(Cc2ccc(O)cc2)cc1 | inactive | inactive
Oc1cc(O)c2c(c1)O[C@H](c1ccc(O)c(O)c1)[C@H](O)C2 | inactive | inactive
Cc1ccc2ccc3ccc(C)nc3c2n1 | Active | Active
NCCc1c[nH]c2ccccc12 | Active | Active
O=c1cc(-c2ccc(O)cc2)oc2cc(O)cc(O)c12 | inactive | inactive
COc1ccc2c(c1)c(CC(=O)O)c(C)n2C(=O)c1ccc(Cl)cc1 | inactive | inactive
Oc1cc(O)c2c(c1)O[C@H](c1ccc(O)c(O)c1)[C@@H](O)C2 | inactive | inactive
COc1cc(/C=C/C(=O)NCCCCNC(=O)/C=C/c2ccc(O)c(OC)c2)ccc1O | inactive | inactive
O=C1C(Cl)=C(Cl)C(=O)C(Cl)=C1Cl | inactive | inactive
O=C(c1ccccc1O)c1ccccc1O | inactive | inactive
COc1cc(/C=C/C(=O)NCCNC(=O)/C=C/c2ccc(O)c(OC)c2)ccc1O | inactive | inactive
